Data reported in patent publication US20230187019A1, “METHOD FOR DETERMINING A DRUG COMBINATION VIA A BLOCKING MODEL OF A MULTI-SITE-TARGETED PROTEIN AND APPLICATIONS THEREOF” (National Tsing Hua University, priority 2021, published 2023).
Entries after “also recorded” stand apart in the source; their conditions may differ. Where two headings read alike, the source gives them in different places.

Columns and labels:
[1] = target: ATG4B (Homo sapiens, UniProt Q9Y4P1); assay: In vitro cleavage assay of ATG4B catalytic activity (western blot of tagged LC3B); format: biochemical; conditions: read-out: inhibition on ATG4B's catalytic activity
[2] = test system: HCT116; assay: Cell viability assay on HCT116; format: cell-based, human; conditions: for viability at 20 µM: Homo sapiens, HCT-116, remaining viability, read-out: HCT116 Cell Viability; for viability at 20 µM / HCT116 Cell Viability: 20 μM drug, normalized by blank control, three repeats; for HCT116 Cell Viability: remaining viability
[3] = test system: shCtrl/HCT116; assay: Cell viability assay on shCtrl/HCT116 (control strain); format: cell-based, human; conditions: 20 μM drug, C strain; for viability at 20 µM: Homo sapiens, HCT-116, remaining viability, read-out: shCtrl/HCT116 Cell Viability; for shCtrl/HCT116 Cell Viability: remaining viability
[4] = test system: shATG4B/HCT116; assay: Cell viability assay on shATG4B/HCT116 (ATG4B silencing strain); format: cell-based, human; conditions: for viability at 20 µM: Homo sapiens, HCT-116, remaining viability, read-out: shATG4B/HCT116 Cell Viability; for viability at 20 µM / shATG4B/HCT116 Cell Viability: 20 μM drug, S strain; for difference of cell viability inhibition between shATG4B/HCT116 (S strain) and shCtrl/HCT116 (C strain): Student's t-test, p-value <0.05; for shATG4B/HCT116 Cell Viability: remaining viability
[5] = test system: AK4.4; assay: Cell viability assay (MTT) on AK4.4; conditions: for IC50: Mus musculus
[6] = test system: AsPC-1; assay: Cell viability assay (MTT) on AsPC-1; conditions: for viability at 20 µM / IC50: Homo sapiens; for viability at 20 µM: ASPC1, read-out: AsPC-1 Cell Viability, remaining viability, 20 μM drug, normalized by blank control, three repeats; for inhibition of cell viability, significance: 20 μM, AsPC-1, p-value <0.05
[7] = target: T1, ATG4B (Homo sapiens, UniProt Q9Y4P1); assay: ATG4B activity reporter assay (cleaved PLA2 fluorescence); format: biochemical; set-up: host or cells: in silico model from PDB 2Z0D
T1 sequence (Q9Y4P1 whole entry, looked up): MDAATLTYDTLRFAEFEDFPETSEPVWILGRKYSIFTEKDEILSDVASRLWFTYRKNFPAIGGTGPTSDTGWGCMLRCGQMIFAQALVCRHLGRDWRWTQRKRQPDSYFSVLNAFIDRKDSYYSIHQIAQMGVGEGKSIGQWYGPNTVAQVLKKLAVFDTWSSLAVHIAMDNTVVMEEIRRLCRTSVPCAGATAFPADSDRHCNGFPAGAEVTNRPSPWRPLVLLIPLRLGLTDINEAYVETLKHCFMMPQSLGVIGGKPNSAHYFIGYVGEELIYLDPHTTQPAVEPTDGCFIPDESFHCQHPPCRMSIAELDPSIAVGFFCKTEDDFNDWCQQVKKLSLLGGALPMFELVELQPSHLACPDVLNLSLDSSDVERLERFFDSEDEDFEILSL

[8] = target: T1, ATG4B; assay: In vitro cleavage assay of ATG4B catalytic activity (western blot of tagged LC3B); format: biochemical
[9] = test system: AK4.4 pancreatic ductal adenocarcinoma (PDAC) xenograft; conditions: dose of 20 mg/kg, I.P.
[10] = in vivo
[11] = target: full-length fusion protein composed of C-Myc, pro-LC3B, and S-tag, Q9GZQ8
[12] = Tc concentration for 50% reduction of viability in combination with 0.50 μM Mx
[13] = Tc concentration for 50% reduction of viability in combination with 1.00 μM Mx
[14] = Tc concentration for 50% reduction of viability in combination with 2.5 μM Vb
[15] = Tc concentration for 50% reduction of viability in combination with 5 μM Vb
[16] = Tc concentration for 50% reduction of viability in combination with 10 μM Vb

Cc1ccc(C(=O)Nc2ccc(CN3CCN(C)CC3)c(C(F)(F)F)c2)cc1C#Cc1cnc2cccnn12 [Ponatinib]
inhibition at 5 µM [1]: 30% | viability at 20 µM [2]: 19% | HCT116 Cell Viability [2]: 18.5 ± 0.6% | viability at 20 µM [3]: 21% | shCtrl/HCT116 Cell Viability [3]: 21.3 ± 0.6% | viability at 20 µM [4]: 31% | IC50 ([5]; read-out: IC50, Pn): 0.51 µM | viability at 20 µM [6]: 47% | AsPC-1 Cell Viability ([6]; remaining viability, 20 μM drug, normalized by blank control, three repeats): 47.2 ± 1.3%

Ac-YDTLRFAEF-NH2 [N-term-9]
inhibition to ATG4B activity at lower peptide concentration ([7]; 1 μM peptide): maintained | inhibition to ATG4B activity ([7]; ATG4B activity reporter assays, 10 μM peptide): ~25%

Ac-YDTLGIF-NH2 [N-term-7]
inhibition to ATG4B activity at lower peptide concentration ([8]; 1 μM peptide): maintained | inhibition to ATG4B activity ([8]; ATG4B cleavage assays, 10 μM peptide): about 30%

Cc1ccc(C(=O)Nc2ccc(S(=O)(=O)O)c3cc(S(=O)(=O)O)cc(S(=O)(=O)O)c23)cc1NC(=O)c1cccc(NC(=O)Nc2cccc(C(=O)Nc3cc(C(=O)Nc4ccc(S(=O)(=O)O)c5cc(S(=O)(=O)O)cc(S(=O)(=O)O)c45)ccc3C)c2)c1 [Suramin]
viability at 20 µM [2]: 100 ± 2.3% | viability at 20 µM [3]: 104 ± 4.4% | viability at 20 µM [4]: 98.3 ± 0.7% | viability at 20 µM [6]: 107 ± 6.5%

Clc1ccc(C(Cn2ccnc2)OCc2ccsc2Cl)c(Cl)c1 (stereo not drawn) [tioconazole]
decrease of cell viability of HCT116 ([2]; human, 10 μM): 33% | tumor size measured on day 16 versus control group [9]: less than half of the tumor size in the control group | liver weight, % of mouse body weight [10]: 5.69% | increase in the liver (relative organ weight) ([10]; mouse): 8% | increase in triglyceride as compared to the control ([10]; mouse): 25% | triglyceride ([10]; mouse): 198.2 mg/dL | IC50 ([5]; read-out: IC50, Tc, tioconazole alone, AK4.4 (Table 8)): 14 µM | IC50 ([5]; read-out: IC50, Tc, tioconazole alone, AK4.4 (Table 11)): 12.5 µM | IC50 ([5]; read-out: IC50, Tc, tioconazole alone, AK4.4 (Table 12)): 13 µM | CTc, 50 ([5]; Tc concentration for 50% reduction of viability in combination with 0.05 μM Pn): 12.31 µM | CTc, 50 ([5]; Tc concentration for 50% reduction of viability in combination with 0.1 μM Pn): 11.85 µM | CTc, 50 ([5]; Tc concentration for 50% reduction of viability in combination with 0.25 μM Pn): 5.86 µM | CTc, 50 [5, 12]: 13.42 µM | CTc, 50 ([5]; Tc concentration for 50% reduction of viability in combination with 0.5 μM Pn): 0.17 µM | CTc, 50 [5, 13]: 4.21 µM | CTc, 50 [5, 14]: 12.07 µM | CTc, 50 [5, 15]: 8.43 µM | CTc, 50 [5, 16]: 5.88 µM | IC50 ([6]; ASPC1, read-out: IC50, Tc, tioconazole alone, AsPC-1 (Table 9)): 13.5 µM | IC50 ([6]; ASPC1, read-out: IC50, Tc, tioconazole alone, AsPC-1 (Table 13)): 9.61 µM | CTc, 50 [6, 12]: 8.61 µM | CTc, 50 [6, 13]: 7.83 µM | CTc, 50 ([6]; Tc concentration for 50% reduction of viability in combination with 1.25 μM Mx): 5.65 µM | CTc, 50 [6, 14]: 8.14 µM | CTc, 50 [6, 15]: 6.32 µM | CTc, 50 [6, 16]: 5.21 µM

Cc1cn(-c2cc(NC(=O)c3ccc(C)c(Nc4nccc(-c5cccnc5)n4)c3)cc(C(F)(F)F)c2)cn1 [Nilotinib]
viability at 20 µM [2]: 61.4 ± 4.4% | viability at 20 µM [3]: 59.6 ± 1.7% | viability at 20 µM [4]: 68.2 ± 1.1% | viability at 20 µM [6]: 95.2 ± 3.4%

Cc1nc2c([nH]1)-c1ccccc1N(C(=O)c1ccc(NC(=O)c3ccccc3-c3ccccc3)cc1)CC2 [Conivaptan]
viability at 20 µM [2]: 67.8 ± 0.5% | viability at 20 µM [3]: 69.5 ± 2.2% | viability at 20 µM [4]: 84 ± 2% | viability at 20 µM [6]: 99.3 ± 2.8%

C#C[C@]1(O)CC[C@H]2[C@@H]3CCc4cc(O)ccc4[C@H]3CC[C@@]21C [Ethynyl Estradiol]
viability at 20 µM [2]: 47% | HCT116 Cell Viability [2]: 47.4 ± 1.8% | viability at 20 µM [3]: 49% | shCtrl/HCT116 Cell Viability [3]: 48.7 ± 1.4% | viability at 20 µM [4]: 70% | difference of cell viability inhibition between shATG4B/HCT116 (S strain) and shCtrl/HCT116 (C strain) [4]: statistically significant; also recorded: significant differences | shATG4B/HCT116 Cell Viability [4]: 69.5 ± 3.3% | inhibition of cell viability, significance [6]: statistically significant | viability at 20 µM [6]: 80.1 ± 6.4%

COc1ccc2c(c1)C(=O)N(CCc1ccc(S(=O)(=O)NC(=O)NC3CCCCC3)cc1)C(=O)C2(C)C [Gliquidone]
viability at 20 µM [2]: 87 ± 1.6% | viability at 20 µM [3]: 88.4 ± 7.3% | viability at 20 µM [4]: 89.6 ± 0.6% | viability at 20 µM [6]: 92.4 ± 5.3%

CO[C@H]1C[C@@H]2CC[C@@H](C)[C@@](O)(O2)C(=O)C(=O)N2CCCC[C@H]2C(=O)O[C@H]([C@H](C)C[C@@H]2CC[C@@H](OC(=O)C(C)(CO)CO)[C@H](OC)C2)CC(=O)[C@H](C)/C=C(\C)[C@@H](O)[C@@H](OC)C(=O)[C@H](C)C[C@H](C)/C=C/C=C/C=C/1C [Temsirolimus]
viability at 20 µM [2]: 52.1 ± 0.9% | viability at 20 µM [3]: 50% | shCtrl/HCT116 Cell Viability [3]: 49.5 ± 3.5% | viability at 20 µM [4]: 60% | difference of cell viability inhibition between shATG4B/HCT116 (S strain) and shCtrl/HCT116 (C strain) ([4]; listed as emsirolimus): significant differences | difference of cell viability inhibition between shATG4B/HCT116 (S strain) and shCtrl/HCT116 (C strain) ([4]; listed as temsirolimus): statistically significant | shATG4B/HCT116 Cell Viability [4]: 60.5 ± 1.9% | inhibition of cell viability, significance [6]: statistically significant | viability at 20 µM [6]: 69 ± 4.2%

CC(C)(C)NC(=O)[C@@H]1C[C@@H]2CCCC[C@@H]2CN1C[C@@H](O)[C@H](Cc1ccccc1)NC(=O)[C@H](CC(N)=O)NC(=O)c1ccc2ccccc2n1 [Saquinavir]
viability at 20 µM [2]: 67 ± 1.2% | viability at 20 µM [3]: 63.5 ± 0.8% | viability at 20 µM [4]: 65.4 ± 1.2% | viability at 20 µM [6]: 84.6 ± 5.5%

B1: autophagy related 4B cysteine peptidase (ATG4B) (protein)
chain: MDAATLTYDTLRFAEFEDFPETSEPVWILGRKYSIFTEKDEILSDVASRLWFTYRKNFPAIGGTGPTSDTGWGCMLRCGQMIFAQALVCRHLGRDWRWTQRKRQPDSYFSVLNAFIDRKDSYYSIHQIAQMGVGEGKSIGQWYGPNTVAQVLKKLAVFDTWSSLAVHIAMDNTVVMEEIRRLCRTSVPCAGATAFPADSDRHCNGFPAGAEVTNRPSPWRPLVLLIPLRLGLTDINEAYVETLKHCFMMPQSLGVIGGKPNSAHYFIGYVGEELIYLDPHTTQPAVEPTDGCFIPDESFHCQHPPCRMSIAELDPSIAVGFFCKTEDDFNDWCQQVKKLSLLGGALPMFELVELQPSHLACPDVLNLSLDSSDVERLERFFDSEDEDFEILSL
cleavage of recombinant pro-LC3B (S-tag band on western blot) [11]: P: positive control, pro-LC3 mixed with ATG4B, and the cleavage by ATG4B resulting in the lighter band for S-tag | normalized S-tag band intensity (LICOR; divided by the negative control N) of lane P, no peptide, blot of the N7 series, ATG4B cleavage assay [11]: 0.3 | normalized S-tag band intensity (divided by the negative control N) of lane P, no peptide, blot of the N18 series, ATG4B cleavage assay [11]: 0.3 | normalized S-tag band intensity (image J; divided by the negative control N) of lane P, no peptide, blot of the N7 series, ATG4B cleavage assay [11]: 0.4
